In one assay the test system is HUVECs. The assay is described as follows: Tube formation (tubulogenesis) assay in HUVECs, 18 h. The class given is cell-based, human. Conditions: Homo sapiens, HUVEC, 18 h, HUVEC. As to the method:
Similar to the cultivation of iCell®-endothelial cells, HUVEC maintenance and experimentation are detailed elsewhere ([Iwata et al. 2017]). Briefly, HUVECs were thawed, seeded, and grown in T75 tissue culture flasks in Medium 199 with EGM™-2 BulletKits™. HUVECs were incubated at regular cell culture conditions, 37°C and 5% CO2 , and passaged every 2–3 d using TrypLE™ Express. To ensure adequate endothelial function, experiments were performed with cells between passages 1 and 5.
(§1) Tube formation assays were performed on Geltrex™ LDEV-free reduced growth factor basement membrane using both iCell®-endothelial cells and HUVECs in 384-well format exactly as detailed in Iwata et al. ([2017]). Negative controls included media-only and vehicle control (i.e., 0.5% vol/vol DMSO in cell culture media) wells. Positive assay controls were consistent with previously published reports ([Iwata et al. 2017]) and included TAB ( 50μM ) as a cytotoxic control, and nocodazole ( 0.01–1μM ), suramin ( 0.5–50μM ), histamine ( 0.1–100μM ), and chloroquine ( 1–500μM ) as chemicals associated with specific effects on ECs. Each test chemical was screened in triplicate for each concentration. Briefly, for iCell®-endothelial cells, starvation media consisted of VascuLife® basal medium with 4 mM L-glutamine LifeFactor and 0.1% iCell®-endothelial cells medium supplement. To counter dilution effects, a 2× concentration of the HUVEC maintenance medium supplemented with additional VEGF was created (EGM™-2 BulletKits™ at 2× concentration; also the VEGF component was replaced with 12.5 ng/mL VEGF). Geltrex™ LDEV-free reduced growth factor basement membrane was thawed overnight and dispensed into 384-well plates ( 10μL/well ) with tapping and rotating to evenly coat. The plates were incubated for 1 h in a cell culture incubator at 37°C and 5% CO2 . A 2× PCB plate (containing all of the PCBs and metabolites in dose–response) was prepared in basal media and added, 25μL per well, to the Geltrex™ coated plates. On separate plates, cells were seeded 7,500 (iPSC- ECs) or 3,500 (HUVEC) cells/well. Cells were exposed to chemicals overnight at 37°C and 5% CO2 and stained with 3× concentration of calcein AM ( 25μL /well, 6μmol/L ) for 15 min before imaging. Images were captured at 4× magnification with the FITC filter (calcein AM). Images were analyzed with the angiogenesis module software within MetaXpress™ (Molecular Devices).
(§2) Phenotypic responses were quantitatively assessed using concentration–response modeling as detailed elsewhere ([Sirenko et al. 2017]). Briefly, phenotypic readouts were normalized to vehicle controls and fit to a four-parameter logistic model in R studio software (version 3.1.1; R Development Core Team). Following EPA guidance on dose–response modeling, a cutoff of one standard deviation across means of vehicle control (i.e., 0.5% vol/vol DMSO in cell culture media) wells was applied to determine the point-of-departure (POD) values ([U.S. EPA 2012]). In the absence of a concentration–response, the highest tested concentration (i.e., 100μM ) was assigned as “no observable adverse effect level.” The concentration–response assessment R script, as well as templates for vehicle and concentration–response data, are available as a supplement to Sirenko et al. ([2017]). The ability of physicochemical properties to predict differences in PODs were evaluated by multiregression and mixed-effects modeling using R.

Assay [1] deals with iCell endothelial cells (human iPSC-derived ECs). Briefly: Tube formation (tubulogenesis) assay in iCell endothelial cells, 18 h. Conditions: Homo sapiens, Endothelial cell, endothelial cells (endo), 18 hr. It counts as cell-based. How it is done:
The culture conditions of iCell®-endothelial cells were as reported elsewhere ([Iwata et al. 2017]). Briefly, T75 flasks were coated with a fibronectin solution ( 3 μg/cm^2 ) followed by incubation for 1–2 h. Cells were thawed for 3 min in a 37°C water bath. Thawed cells were added to maintenance medium made of VascuLife VEGF Medium Complete Kit, excluding the supplied FBS, and iCell® Endothelial Cells Medium Supplement. The final formulation of the maintenance medium is detailed in ([Iwata et al. 2017]). The aliquoted fibronectin solution was aspirated from the T75 flasks, and cells were seeded at 1.0×10^4 cells/cm^2 . Cells were maintained at 37°C and 5% CO2 with media changes occurring every 2 d and passaged every 3–4 d using TrypLE™ Express. All experiments were conducted on cells between passages 1 and 5.
as §1, §2

Where two headings read alike, the source gives them in different places.

As for `Oc1ccc(O)c(-c2ccc(Cl)cc2)c1` [2',5'-diOH-PCB 3, 4-Chloro-2′,5′-dihydroxybiphenyl], the minimal effective concentration with HUVECs (tube formation mtl, read-out: POD huvec.mtl.18hr) is 1.26 µM; with HUVECs (tube formation tlps, read-out: POD huvec.tlps.18hr), 1.55 µM; in the assay with HUVECs (tube formation tta, read-out: POD huvec.tta.18hr), 1.39 µM; in the assay with HUVECs (tube formation ttl, read-out: POD huvec.ttl.18hr) it was 1.23 µM; in assay [1] (tube formation mtl, read-out: POD endo.mtl.18hr), 0.47 µM; in assay [1] (tube formation tlps, read-out: POD endo.tlps.18hr), 0.53 µM. Also, the minimal effective concentration in assay [1] (tube formation tta, read-out: POD endo.tta.18hr) stood at 1.63 µM; in assay [1] (tube formation ttl, read-out: POD endo.ttl.18hr), 1.51 µM.

These data come from publication PMC7377239, “Cardiovascular Effects of Polychlorinated Biphenyls and Their Major Metabolites” (Environmental Health Perspectives, 2020).
